Source: ChEMBL document CHEMBL5579819, “Dual-target inhibitors of colchicine binding site for cancer treatment” (Eur J Med Chem, 2024)
Blank lines part the entries; values can stand above or below the molecule they belong to.

Assays:
MCF7 [1] = assay: Cytotoxicity against human MCF7 cells assessed as reduction in cell growth incubated for 72 hrs by MTT assay; format: functional, cell-based; settings: MCF7, 72 h
[2] = target: Triosephosphate isomerase (Homo sapiens, UniProt P60174); assay: Inhibition of TPI (unknown origin)
Triosephosphate isomerase, sequence (P60174 whole entry): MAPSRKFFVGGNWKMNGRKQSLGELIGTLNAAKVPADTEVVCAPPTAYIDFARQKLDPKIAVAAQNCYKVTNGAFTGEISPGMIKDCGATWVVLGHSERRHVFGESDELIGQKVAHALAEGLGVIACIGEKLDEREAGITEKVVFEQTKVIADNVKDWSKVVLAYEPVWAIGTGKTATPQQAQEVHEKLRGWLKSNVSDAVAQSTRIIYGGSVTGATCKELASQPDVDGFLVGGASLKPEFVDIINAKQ

MCF7 [3] = assay: Cytotoxicity against human MCF7 cells assessed as reduction in cell viability by MTT assay
MCF7 [4] = assay: Cytotoxicity against human MCF7 cells assessed as reduction in cell growth incubated for 24 hrs by MTT assay; settings: MCF7, 24 h
[5] = target: Platelet-derived growth factor receptor beta (Homo sapiens, UniProt P09619); assay: Inhibition of human recombinant PDGFRbeta incubated for 40 mins by Kinase-Glo luminescent kinase assay
Platelet-derived growth factor receptor beta, sequence (P09619 whole entry): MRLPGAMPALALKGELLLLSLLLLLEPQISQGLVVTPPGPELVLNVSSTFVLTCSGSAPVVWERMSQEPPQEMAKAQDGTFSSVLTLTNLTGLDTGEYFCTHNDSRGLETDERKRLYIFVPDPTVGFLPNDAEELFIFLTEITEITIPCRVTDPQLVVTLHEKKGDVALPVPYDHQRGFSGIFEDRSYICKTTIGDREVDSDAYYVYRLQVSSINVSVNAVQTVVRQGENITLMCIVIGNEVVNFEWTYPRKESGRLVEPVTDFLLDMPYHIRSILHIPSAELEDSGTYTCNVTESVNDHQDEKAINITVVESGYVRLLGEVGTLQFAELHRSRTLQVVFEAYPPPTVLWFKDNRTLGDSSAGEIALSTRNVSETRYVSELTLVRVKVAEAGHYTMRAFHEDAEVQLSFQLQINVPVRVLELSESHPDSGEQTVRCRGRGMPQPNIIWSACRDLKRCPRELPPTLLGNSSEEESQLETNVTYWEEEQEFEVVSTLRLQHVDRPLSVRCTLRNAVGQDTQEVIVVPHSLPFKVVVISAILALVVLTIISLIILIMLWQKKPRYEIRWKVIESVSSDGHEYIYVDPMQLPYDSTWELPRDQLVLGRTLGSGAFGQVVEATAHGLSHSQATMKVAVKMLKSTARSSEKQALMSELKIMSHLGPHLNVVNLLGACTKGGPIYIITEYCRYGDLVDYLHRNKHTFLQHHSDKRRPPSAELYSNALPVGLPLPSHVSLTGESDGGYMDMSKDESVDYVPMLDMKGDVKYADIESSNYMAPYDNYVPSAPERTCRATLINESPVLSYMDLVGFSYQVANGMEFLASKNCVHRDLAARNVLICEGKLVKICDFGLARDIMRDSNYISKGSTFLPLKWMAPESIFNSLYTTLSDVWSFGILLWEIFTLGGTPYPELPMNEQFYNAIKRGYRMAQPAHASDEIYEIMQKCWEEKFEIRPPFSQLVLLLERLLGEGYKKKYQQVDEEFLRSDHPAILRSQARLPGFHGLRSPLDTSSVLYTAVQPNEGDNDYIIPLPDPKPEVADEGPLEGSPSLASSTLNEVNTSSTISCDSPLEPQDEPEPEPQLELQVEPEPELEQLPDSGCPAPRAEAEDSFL

[6] = target: Vascular endothelial growth factor receptor 2 (Homo sapiens, UniProt P35968); assay: Inhibition of VEGFR2 (unknown origin)
Vascular endothelial growth factor receptor 2, sequence (P35968 whole entry): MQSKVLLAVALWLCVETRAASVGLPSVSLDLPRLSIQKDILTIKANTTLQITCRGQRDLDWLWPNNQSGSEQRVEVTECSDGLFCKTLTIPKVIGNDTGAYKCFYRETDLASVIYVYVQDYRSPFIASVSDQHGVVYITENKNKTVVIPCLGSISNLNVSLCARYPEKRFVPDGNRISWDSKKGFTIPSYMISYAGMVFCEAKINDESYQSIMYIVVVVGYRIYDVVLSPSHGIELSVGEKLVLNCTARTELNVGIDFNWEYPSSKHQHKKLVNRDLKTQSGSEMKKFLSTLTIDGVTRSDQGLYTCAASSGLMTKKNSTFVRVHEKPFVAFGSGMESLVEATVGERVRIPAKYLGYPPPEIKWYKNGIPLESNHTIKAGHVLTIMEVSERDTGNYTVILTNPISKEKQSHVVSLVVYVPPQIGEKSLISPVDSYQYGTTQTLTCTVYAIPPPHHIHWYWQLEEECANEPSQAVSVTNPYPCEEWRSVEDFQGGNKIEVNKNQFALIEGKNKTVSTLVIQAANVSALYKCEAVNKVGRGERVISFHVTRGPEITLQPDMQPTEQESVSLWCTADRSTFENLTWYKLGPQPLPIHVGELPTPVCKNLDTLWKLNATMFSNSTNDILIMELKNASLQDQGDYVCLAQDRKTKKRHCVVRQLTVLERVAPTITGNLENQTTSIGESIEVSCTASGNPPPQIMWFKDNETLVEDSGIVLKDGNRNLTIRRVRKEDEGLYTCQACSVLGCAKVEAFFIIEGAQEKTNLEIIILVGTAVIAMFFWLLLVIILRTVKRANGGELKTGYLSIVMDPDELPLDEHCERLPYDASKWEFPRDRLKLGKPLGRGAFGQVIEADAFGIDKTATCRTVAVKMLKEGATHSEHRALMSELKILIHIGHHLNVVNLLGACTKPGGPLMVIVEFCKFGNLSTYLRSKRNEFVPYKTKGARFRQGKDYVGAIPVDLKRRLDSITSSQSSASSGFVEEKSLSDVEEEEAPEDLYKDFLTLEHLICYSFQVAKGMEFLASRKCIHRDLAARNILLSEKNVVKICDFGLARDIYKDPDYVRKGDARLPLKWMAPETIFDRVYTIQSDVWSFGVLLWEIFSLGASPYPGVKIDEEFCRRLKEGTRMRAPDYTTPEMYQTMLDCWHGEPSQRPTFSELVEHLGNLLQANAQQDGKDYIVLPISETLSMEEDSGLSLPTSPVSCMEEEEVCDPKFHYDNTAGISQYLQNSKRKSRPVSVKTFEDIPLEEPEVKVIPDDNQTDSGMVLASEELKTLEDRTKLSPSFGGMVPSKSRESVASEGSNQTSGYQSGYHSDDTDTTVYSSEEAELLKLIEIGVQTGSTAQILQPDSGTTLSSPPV

SiHa = assay: Cytotoxicity against human SiHa cells assessed as reduction in cell viability measured for 48 hrs by MTT assay; format: functional, cell-based
HeLa = assay: Cytotoxicity against human HeLa cells assessed as reduction in cell viability measured for 48 hrs by MTT assay; format: functional, cell-based
A549 [7] = assay: Cytotoxicity against human A549 cells; format: functional, cell-based
Histone deacetylase 2 = Histone deacetylase 2 (Homo sapiens, UniProt Q92769); assay: Inhibition of HDAC2 (unknown origin)
Histone deacetylase 2, sequence (Q92769 whole entry): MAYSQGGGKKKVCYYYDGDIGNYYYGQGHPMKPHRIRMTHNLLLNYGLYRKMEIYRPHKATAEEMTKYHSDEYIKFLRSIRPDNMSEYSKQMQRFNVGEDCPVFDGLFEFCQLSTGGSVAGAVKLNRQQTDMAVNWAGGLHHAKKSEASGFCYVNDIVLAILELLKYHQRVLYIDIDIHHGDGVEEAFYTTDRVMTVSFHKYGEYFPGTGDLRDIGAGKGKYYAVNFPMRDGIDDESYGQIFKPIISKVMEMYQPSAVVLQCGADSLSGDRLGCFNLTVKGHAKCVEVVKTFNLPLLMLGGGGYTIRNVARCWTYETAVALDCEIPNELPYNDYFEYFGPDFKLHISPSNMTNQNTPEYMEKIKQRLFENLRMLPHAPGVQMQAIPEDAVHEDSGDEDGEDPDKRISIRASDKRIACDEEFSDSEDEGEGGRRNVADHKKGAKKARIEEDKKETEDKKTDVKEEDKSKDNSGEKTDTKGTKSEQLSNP

U-937 = assay: Cytotoxicity against human U-937 cells; format: functional, cell-based
[8] = AUC (0 to t) in BALB/c mouse at 50 mg/kg, po measured for 24 hrs by LC-MS/MS analysis; format: ADME, organism-based; settings: in vivo
[9] = Metabolic stability in BALB/c mouse liver microsome assessed as half life incubated for 1 hrs by LC-MS/MS analysis; format: ADME; settings: liver microsomes
[10] = Cmax in BALB/c mouse at 50 mg/kg, po measured for 24 hrs by LC-MS/MS analysis; format: ADME, organism-based; settings: in vivo
HepG2 [11] = assay: Cytotoxicity against human HepG2 cells assessed as reduction in cell growth incubated for 24 hrs by MTT assay; format: functional, cell-based; settings: HepG2, 24 h
[12] = Selectivity index, ratio of CC50 for cytotoxicity against African green monkey Vero cells to IC50 for cytotoxicity against human HepG2 cells; format: toxicity, cell-based; settings: Vero cells (CC50) and HepG2 cells (IC50)
MCF7 [13] = assay: Cytotoxicity against human MCF7 cells assessed as cell growth inhibition incubated for 24 hrs by MTT assay; format: functional, cell-based; settings: MCF7, 24 h
A549 [14] = assay: Cytotoxicity against human A549 cells assessed as reduction in cell growth incubated for 24 hrs by MTT assay; format: functional, cell-based; settings: A549, 24 h
HCT-116 = assay: Cytotoxicity against human HCT-116 cells assessed as reduction in cell viability incubated fro 24 hrs by MTT assay; format: functional, cell-based; settings: HCT-116, 24 h
HepG2 [15] = assay: Cytotoxicity against human HepG2 cells assessed as reduction in cell viability incubated for 24 hrs by MTT assay; format: functional, cell-based; settings: HepG2, 24 h
MCF7 [16] = assay: Cytotoxicity against human MCF7 cells assessed as reduction in cell viability incubated for 24 hrs by MTT assay; format: functional, cell-based; settings: MCF7, 24 h
Ishikawa = assay: Antiproliferative activity against human Ishikawa cells assessed as reduction in cell growth incuabted for 48 hrs by MTT assay; format: functional, cell-based
Tubulin = assay: Inhibition of tubulin polymerization (unknown origin) by fluorescence based assay; format: protein-complex assay, Homo sapiens
COLO 205 = assay: Cytotoxicity against human COLO 205 cells assessed as reduction in cell growth incubated for 24 hrs by SRB assay; format: functional, cell-based; settings: COLO 205, 24 h

Compound: Nc1ccccc1NC(=O)c1ccc(CN2CCC/C(=C\c3cccc(Cl)c3)C2=O)cc1
IC50 (MCF7 [1]): 2.1 µM

IC50 [2]: 7.99 µM
IC50 [5]: 3.18 µM
IC50 [6]: 5.75 µM
Compound: O=C1Nc2ccccc2/C1=C/c1ccc(OCC(=O)c2ccc(Br)cc2)cc1
IC50 (MCF7 [3]): 14.8 µM
IC50 (MCF7 [4]): 14.8 µM

Compound: COc1cc2oc(C(=O)c3cc(OC)c(OC)c(OC)c3)cc2cc1/C=C/C(=O)O
IC50 (SiHa): 1.1 µM
IC50 (HeLa): 1.06 µM

IC50 (Histone deacetylase 2): 0.06 µM
Compound: COc1cc2c(cc1OCc1ccc(C(=O)Nc3ccccc3N)cc1)CC[C@@H]1[C@@H]2CC[C@]2(C)[C@@H](O)CC[C@@H]12
IC50 (A549 [7]): 1.78 µM
IC50 (U-937): 0.371 µM

AUC(0-t) at 24 h [8]: 87600 ng·h/mL
half-life [9]: 4.29 h
IC50 [2]: 0.99 µM
Cmax [10]: 12200 ng/mL
Compound: CCOC(=O)Nc1nc2ccc(-c3cc(Cc4n[nH]c(=O)c5ccccc45)ccc3F)cc2[nH]1

IC50 [2]: 1.9 µM
Compound: CN(C)c1ccc(/C=N/c2c(N)n(C)c(=O)[nH]c2=O)cc1
IC50 (HepG2 [11]): 1.07 µM
selectivity ratio [12]: 3.74
IC50 (MCF7 [13]): 3.17 µM
IC50 (A549 [14]): 1.53 µM

Compound: CCOCCSc1nc(-c2ccccc2Cl)nn1CCOCC
IC50 (HCT-116): 3.36 µM
IC50 (HepG2 [15]): 1.3 µM
IC50 (MCF7 [16]): 5.16 µM

IC50 [2]: 1.4 µM
Compound: O=c1cc(-c2ccc(F)cc2)oc2cc(-c3ccoc3)ccc12
IC50 (Ishikawa): 1 µM

IC50 (Tubulin): 1.66 µM
Compound: COc1cc(OC)c(/C=C2/C(=O)Nc3cc(Cl)ccc32)c(OC)c1
IC50 (COLO 205): 0.2 µM
